One test deals with A549. Briefly: DIVAA, angiogenesis induced by tumor cells embedded in matrigel. The format is in vivo, human. Particulars: A549, 10,000 cells per angioreactor, 100 nM PAMP(12-20). Here is the method:
(§1) Analysis and quantitation of angiogenesis was done using DIVAA as previously described (Martinez et al., J. Natl. Cancer Inst., 21; 94(16):1226-37, 2002; Guedez et al., Am. J. Pathol. 162, 1431-1439, 2003). Briefly, 10 mm long surgical-grade silicone tubes with only one end open (angioreactors) were filled with 20 μl of matrigel alone or mixed with AM, bFGF, VEGF, PAMP, and/or PAMP(12-20) at the indicated concentrations. Human lung cancer cell lines (see below) were also premixed with matrigel alone or in combination with PAMP(12-20) at 10,000 cells per angioreactor. After the matrigel solidified, the angioreactors were implanted into the dorsal flanks of anesthetized athymic nude mice (NCI colony). After eleven days, the mice were injected intravenously with 25 mg/ml FITC-dextran (100 μl/mouse, Sigma) 20 minutes before removing the angioreactors. Photographs of the implants were taken for visual examination of angiogenic response. Quantitation of neovascularization in the angioreactors was determined as the amount of fluorescence trapped in the implants and was measured in a HP Spectrophotometer (Perkin Elmer).
(§2) The human cancer cell lines used, A549 and H1299, were obtained from the American Tissue Culture Collection (ATCC) and fed with RPMI164O containing 10% fetal bovine serum (Invitrogen). […]

Another test concerns H1299. The description is as above. Particulars: H1299, 10,000 cells per angioreactor, 100 nM PAMP(12-20). It counts as in vivo, human. Here is the method:
as §1, §2

For another test, the system named is A549 tumors. Briefly: Xenograft experiment. It counts as in vivo, athymic nude mice. Here is the method: Twenty female athymic nude mice from the NIH colony in Frederick (MD) were injected subcutaneously with 1.0×10^7 A549 cells/mouse. Two weeks later, all the mice had developed palpable tumors under the skin and at this time they were divided in two groups. Three times a week, each individual tumor was measured (length, height, thickness) and every mouse received an intratumoral injection, according to their group. Group 1 (control) received 100 μl PBS. […] When the tumor burden became unbearable, the mice were sacrificed.

Test [1] deals with Human dermal microvascular endothelial cells. Briefly: Calcium measurements (ATP-induced calcium flux). The format is cell-based. The following applies: 100 nM PAMP(12-20) with 10 nM PAMP and 1 mM ATP. As for the experimental part: Human dermal microvascular endothelial cells were obtained from Cell Applications, Inc. and cultured in 96-well plates at 1.0×10^5 cells per well. The cells were loaded for 60 minutes at room temperature with the fluorescent dye FLIPR (Molecular Devices) and then transferred to the FlexStation II (Molecular Devices) for analysis. The test compounds were prepared in another plate at a concentration of 5× and were added to the proper wells by the robotic arm of the FlexStation II. Fluorescence was measured every five seconds in each well and recorded. One mM ATP (Sigma) was used as a calcium agonist (Lau et al., Life Sci. 73, 20 19-2028, 2003).
In general terms: Calcium assays in cells follow changes in intracellular calcium, usually with a dye or a luminescent sensor.

The next test deals with athymic nude mice. Put plainly: DIVAA with angioreactors, Example 2 (peptides in matrigel). The format is in vivo. Here is the method: as §1
To further characterize this observation, an […] assay was employed that allows for more precise quantitation of angiogenic properties: the directed […] angiogenesis assay or DIVAA (Martinez et al., J. Natl. Cancer Inst., 21; 94(16): 1226-37, 2002; Guédez et al., Am. J. Pathol. 162, 1431-1439, 2003). The assay involves implanting small silicone capsules carrying the test substances under the skin of nude mice. After eleven days, the mice are injected with a specific amount of FITC-dextran, and the volume of blood circulating through the implant is quantified by measuring the fluorescence in the capsule. In addition, the new blood vessels growing into the silicone tube can be seen directly by transparency (FIG. 4A-F). […] The extent of the angiogenic response can be seen clearly when this response is compared with the negative control (FIG. 4A). The angiogenic response elicited by PAMP was dose-dependent (FIG. 4C-G). When compared to AM and VEGF responses at equimolar concentrations, a clear difference was observed.

For “proadrenomedullin N-terminal 20 peptide (12-20) (KWNKWALSR; listed as Homo sapiens) [PAMP(12-20), peptide which comprises only amino acids 12-20 of PAMP]”, the “inhibition of tumor cell-induced angiogenic response” value in the test with A549 and with H1299 was “completely blocked” each time. The “treatment time after which statistical differences in tumor size were observed” value in the test with A549 tumors (1 mM PAMP(12-20) versus PBS, ten mice per group) is “nine”. The “tumor growth versus PBS control” value in the test on A549 tumors (1 mM PAMP(12-20), 100 μl intratumoral injection three times a week) is recorded as “slower rate of tumor growth”. Besides, in test [1], the “reversal of PAMP block of ATP-induced calcium response” value was “initial response was recovered”. The “inhibition of the angiogenic response elicited by PAMP” value is “inhibited angiogenesis to the basal levels” with athymic nude mice (1 nM PAMP with 100 nM PAMP(12-20) (hundred-fold excess)) and “dose-dependent inhibition” with athymic nude mice (1 nM full-length PAMP with increasing doses of PAMP(12-20)). The “effect on basal angiogenesis” value with athymic nude mice (PAMP(12-20) by itself) is “did not modify basal angiogenesis”.

For the origin of these results see patent publication US7862815B2, “Methods for inhibiting angiogenesis with inhibitors of proadrenomedullin N-terminal 20 peptide (PAMP)” (The United States of America as represented by the …, priority 2002, dated 2011).
